Source: ChEMBL document CHEMBL1158687, “A dihydroflavonol glucoside from Commiphora africana that mediates DNA strand scission” (J Nat Prod, 2005)
Calls of active or inactive are those of the source. No cut-off for these calls is given here.

How the values were obtained:
Escherichia coli [1] = experiment: Induction of strand scission in pBR322 DNA in presence of ferrous ion
Escherichia coli [2] = experiment: Induction of strand scission in pBR322 DNA assessed as conversion from supercoiled form to nicked circular form at 50 uM in presence of copper
Escherichia coli [3] = experiment: Induction of strand scission in pBR322 DNA assessed as formation of linear duplex and nicked form at 100 uM in presence of copper
Escherichia coli [4] = experiment: Induction of strand scission in pBR322 DNA in presence of copper

CC(C)=CCc1c(O[C@@H]2O[C@H](CO)[C@@H](O)[C@H](O)[C@H]2O)cc(O)c2c1O[C@H](c1ccc(O)cc1)[C@@H](O)C2=O
Activity (Escherichia coli [1]): inactive | Activity (Escherichia coli [2]): 62% | Activity (Escherichia coli [3]): Active | Activity (Escherichia coli [4]): Dose-dependent effect
